Test results taken from ChEMBL document CHEMBL3137667, “[Drug-induced liver injury; fourteenth updated edition of the bibliographic database of liver injuries and related drugs]” (Gastroenterol Clin Biol, 2004).

Assays:
[1] = Highest frequency of moderate liver toxicity observed during clinical trials, expressed as a percentage. [column '% BIOL' in source]; conditions: human
[2] = human, serum
[3] = human
[4] = human; remark: listed apart in the source
[5] = human; remark: listed apart in the source
[6] = human; remark: listed apart in the source
[7] = human; remark: listed apart in the source
[8] = human; remark: listed apart in the source
[9] = human, serum, 4383 h
[10] = Highest frequency of acute liver toxicity observed during clinical trials, expressed as a percentage. [column '% AIGUE' in source]; conditions: human
[11] = Times to onset, minimal and maximal, observed in the indexed observations. [column 'DELAI' in source]; conditions: human
[12] = human, serum; remark: listed apart in the source
[13] = human; remark: listed apart in the source
[14] = human; remark: listed apart in the source
[15] = human; remark: listed apart in the source
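For Hepatotoxicity (association with vascular disease) in this document: count of indexed literature references reporting vascular liver injury in humans, e.g. peliosis hepatitis, hepatic veno-occlusive disease or Budd-Chiari syndrome.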
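For Hepatotoxicity (benign tumour) in this document: value is a count of indexed literature references citing a benign tumour confirmed by histopathology.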
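For Hepatotoxicity (choleostasis) in this document: human cholestatic liver injury, shown by histopathology or by peak ALT or AST elevation over alkaline phosphatase ratio below 2, value counts indexed literature reports.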
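For Hepatotoxicity (chronic liver disease) in this document: chronic liver injury confirmed by histopathology or persistently raised serum aminotransferase activity beyond 6 months, value given as the count of indexed literature references.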
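For Hepatotoxicity (cirrhosis) in this document: value is a count of indexed literature references reporting cirrhosis confirmed by histopathology.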
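For Hepatotoxicity (cytolytic) in this document: human cytolytic liver injury, shown by histopathology or by a ratio above 5 of peak ALT or AST elevation to alkaline phosphatase elevation, value counts indexed references.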
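For Hepatotoxicity (granulomatous hepatitis) in this document: value is a count of indexed literature references reporting granulomatous liver disease confirmed by histopathology.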
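For Hepatotoxicity (malignant tumour) in this document: malignant tumour confirmed by histopathology, value gives the count of indexed literature references reporting it.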
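For Hepatotoxicity (severe hepatitis) in this document: human clinical data: severe hepatitis, meaning potentially life-threatening liver failure or clinically observed cases, the value counts how many indexed literature references report it.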
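For Hepatotoxicity (steatosis) in this document: steatosis confirmed by histopathology, value is the count of indexed references.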

Structure (SMILES) | Hepatotoxicity (moderate) [1] [%] | Hepatotoxicity (moderate) [2] | Hepatotoxicity (cirrhosis) [3] | Hepatotoxicity (choleostasis) [4] | Hepatotoxicity (severe hepatitis) [5] | Hepatotoxicity (benign tumour) [6] | Hepatotoxicity (granulomatous hepatitis) [7] | Hepatotoxicity (malignant tumour) [8] | Hepatotoxicity (chronic liver disease) [9] | Hepatotoxicity (acute) [10] [%] | Hepatotoxicity (time to onset) [11] | Hepatotoxicity (acute) [12] | Hepatotoxicity (association with vascular disease) [13] | Hepatotoxicity (cytolytic) [14] | Hepatotoxicity (steatosis) [15] | also measured
CO/N=C(\C(=O)N[C@@H]1C(=O)N2C(C(=O)O)=C(COC(C)=O)CS[C@H]12)c1csc(N)n1 [CEFOTAXIME] | 33.3 | 33 | 0 | 2 | 0 | 0 | 0 | 0 | 0 | 3.3 | 3 days - 2 weeks | 4 | 0 | 1 | 0 | 
CN(C)CCn1nnnc1SCC1=C(C(=O)O)N2C(=O)[C@@H](NC(=O)Cc3csc(N)n3)[C@H]2SC1 [CEFOTIAM] | 33 | 8 | 0 | 0 | 0 | 0 | 0 | 0 | 0 | 0.8 | 4 days | 1 | 0 | 0 | 0 | 
Cc1cc(O)c(C(=O)N[C@@H](C(=O)N[C@@H]2C(=O)N3C(C(=O)O)=C(CSc4nnnn4C)CS[C@H]23)c2ccc(O)cc2)cn1 [CEFPIRAMIDE] | 10 | 5 | 0 | 0 | 0 | 0 | 0 | 0 | 0 | 0 | 1 month | 1 | 0 | 1 | 0 | 
Cc1ccc(-c2cc(C(F)(F)F)nn2-c2ccc(S(N)(=O)=O)cc2)cc1 [CELECOXIB] |  | 3 | 0 |  |  | 0 |  | 0 | 0 |  | 2 days - 3 weeks | 8 | 0 |  | 0 | Hepatotoxicity (moderate) ([1]; Liver): 2%; Hepatotoxicity (choleostasis) ([4]; Liver): 4; Hepatotoxicity (severe hepatitis) ([5]; Liver): 0; Hepatotoxicity (granulomatous hepatitis) ([7]; Liver): 0; Hepatotoxicity (acute) ([10]; Liver): 0%; Hepatotoxicity (cytolytic) ([14]; Liver): 5
CCN(CC)CCCC(C)Nc1ccnc2cc(Cl)ccc12 (stereo not given) [CHLOROQUINE] | 0 | 7 | 0 | 1 | 0 | 0 | 1 | 0 | 0 | 0 | 1 day - 4 months | 8 | 0 | 4 | 0 | 
O=NN(CCCl)C(=O)N[C@H]1C(O)O[C@H](CO)[C@@H](O)[C@@H]1O (stereo not given in full) [CHLOROZOTOCIN] | 33 | 2 | 0 | 1 | 0 | 0 | 0 | 0 | 0 | 0 | 1.5 months | 2 | 0 | 1 | 0 | 
CN(C)CCC(c1ccc(Cl)cc1)c1ccccn1.O=C(O)/C=C\C(=O)O (stereo not given) [CHLORPHENIRAMINE MALEATE] |  | 0 | 0 | 1 |  | 0 | 0 | 0 | 0 |  | 1 month | 2 | 0 | 1 | 0 | Hepatotoxicity (moderate) ([1]; Liver): 0%; Hepatotoxicity (severe hepatitis) ([5]; Liver): 0; Hepatotoxicity (acute) ([10]; Liver): 0%
CN(C)CC/C=C1/c2ccccc2Sc2ccc(Cl)cc21 [CHLORPROTHIXENE] | 0 | 0 | 0 | 1 | 0 | 0 | 0 | 0 | 0 | 0 | 1 week | 1 | 0 | 0 | 0 | 
CCOC(=O)[C@H](CCc1ccccc1)N[C@H]1CCCN2CCC[C@@H](C(=O)O)N2C1=O [CILAZAPRIL] | 1.2 | 1 | 0 | 0 | 0 | 0 | 0 | 0 | 0 | 0 | 2 months | 0 | 0 | 0 | 0 | 
C(=C\c1ccccc1)/CN1CCN(C(c2ccccc2)c2ccccc2)CC1 [CINNARIZINE] | 0 | 0 | 0 | 2 | 0 | 0 | 0 | 0 | 0 | 0 | 3 weeks - 7 weeks | 2 | 0 | 0 | 0 | 
COc1cc(N)c(Cl)cc1C(=O)NC1CCN(CCCOc2ccc(F)cc2)CC1OC (stereo not given) [CISAPRIDE] | 0 | 2 | 0 | 0 | 0 | 0 | 0 | 0 | 0 | 0 | 4 days | 1 | 0 | 1 | 0 | 
Nc1nc(Cl)nc2c1ncn2[C@H]1C[C@H](O)[C@@H](CO)O1 [CLADRIBINE] | 13 | 4 | 0 | 0 | 0 | 0 | 0 | 0 | 0 | 9.1 | 2 weeks - 6 months | 2 | 1 | 1 | 0 | 
CN1C(=O)CC(=O)N(c2ccccc2)c2cc(Cl)ccc21 [CLOBAZAM] | 2.1 | 1 | 0 | 0 | 0 | 0 | 0 | 0 | 0 | 0 | 1 week | 0 | 0 | 0 | 0 | 
CC(Cc1ccccc1)NCc1ccccc1Cl (stereo not given) [CLOBENZOREX] | 0 | 0 | 0 | 0 | 0 | 0 | 0 | 0 | 0 | 0 | 2 weeks | 1 | 0 | 1 | 0 | 
